Consider four molecules from patent US4581377A, “Fluorene derivatives” (Nippon Shinyaku Co., Ltd., priority 1983, dated 1986).

In one data set the test system is acetic acid writhing. The experiment in a line: Acetic acid Writhing Method. It counts as in vivo, mouse (male, ddY strain). The note with it: Mus musculus, read-out: Inhibition against Acetic acid writhing ED30.
In another data set the test system is carrageenin edema. The experiment in a line: Effect on carrageenin edema. It counts as in vivo, rat (male, SD strain). The note with it: Rattus norvegicus, po, read-out: Inhibition against Carrageenin edema ED30. As for the experimental part: (Effect on carrageenin edema) One group consisting of 5 male rats of SD strain and of five weeks age was used in the experiment. Compounds to be tested were given orally and, three hours thereafter, 0.1 ml of 0.5% λ-carrageenin was injected at the right hind paw subcutaneously. After three hours, volume of the right hind paw was measured using a plethysmometer, then the volume of the hind paw before the carrageenin injection was deducted from the above measured value to obtain the degree of swelling (in ml), the average swelling inhibition rate of the groups treated with the compounds as compared with the control group was calculated and, using a method of least squares, ED30 was determined.
In general terms: The carrageenan paw model is a standard test of acute inflammation.

A short description of another data set: Acute Toxicity. Conditions: rat, in vivo; rats, p.o.; seven days after oral administration. The protocol:
Four male rats (SD strain) of six weeks age were used as a group and the LD50 values seven days after oral administration was calculated by Weil's method.

A short description of data set [1]: Action for formation of ulcer. More on the design: species or system rat (male, SD strain). Conditions: rat, in vivo, po. As for the experimental part:
(Action for formation of ulcer)
Male rats (SD strain) of five weeks age were fasted for 24 hours and the test compound (as a suspension in CMC; 0.5% concentration) was given orally at a dose of 1 ml/100 g body weight. After 24 hours, 5% pontamine sky blue (0.5 ml) was injected intravenously and, ten minutes thereafter, the rats were killed by anesthetizing with ether and their stomachs were removed therefrom. […] When at least one ulcer was observed, the ulcer formation was decided to be positive and, according to a Weil's method (four rats per group), UD50 (50% ulcer-forming dose) was determined.

[2] abbreviates: mice, i.p. (head), 0.6% acetic acid i.p. 3 h after oral compound (method), writhings over 20 min.
Where [3] appears, read: rats, p.o., compound 3 h before carrageenin, paw volume after 3 h.

Like-named read-outs stand apart in the source and are kept apart here.

By LD50 is commonly meant the dose at which mortality reaches 50%.

Take `CC(=O)CCc1ccc2c(c1)Cc1ccccc1-2` [Example 3, 4-(2-fluorenyl)-butan-2-one]: the ED30 in the data set with acetic acid writhing (setting [2]) turned out to be 37.2 mg/kg; in the data set with carrageenin edema (setting [3]) it was 12.5 mg/kg. The LD50 at 168 h in “Acute Toxicity” is greater than 2000 mg/kg. Also, in data set [1], the TD50 at 24 h turned out to be 182 mg/kg.

In the case of `CC(O)C=Cc1ccc2c(c1)Cc1ccccc1-2` (stereo not shown) [Example 2, 4-(2-fluorenyl)-3-buten-2-ol], the values for the ED30 in the data set with acetic acid writhing (setting [2]) and in the data set on carrageenin edema (setting [3]) were 1.8 mg/kg and 28.3 mg/kg, respectively. This molecule also had an LD50 at 168 h in the data set “Acute Toxicity” of 1680 mg/kg. This molecule gave a TD50 at 24 h in data set [1] of 90 mg/kg.

Turning to `COc1ccc2c(c1)c(CC(=O)O)c(C)n2C(=O)c1ccc(Cl)cc1` [Indomethacin, reference compound], the ED30 amounted to 2.3 mg/kg with acetic acid writhing (po) and 7.1 mg/kg in the data set on carrageenin edema (3 h). The same molecule showed an LD50 at 168 h in “Acute Toxicity” of 29 mg/kg. Besides, the TD50 at 24 h in data set [1] (rats, p.o., 24 h fasted, stomach observed 24 h after dosing, read-out: UD50 (50% ulcer-forming dose)) was determined as 4 mg/kg.

Turning to `CC(O)CCc1ccc2c(c1)Cc1ccccc1-2` (stereo not shown) [Example 9, 4-(2-Fluorenyl)-butan-2-ol], the ED30 stood at 18.4 mg/kg in the data set on acetic acid writhing (setting [2]) and 17.3 mg/kg with carrageenin edema (setting [3]). Moreover, the LD50 at 168 h in “Acute Toxicity” was greater than 2000 mg/kg. In data set [1], this molecule yielded a TD50 at 24 h of 68.4 mg/kg.
